US20180200257A1, “METHODS FOR THE TREATMENT OF INFLAMMATORY DISORDERS” (Galapagos NV, priority 2015, published 2018)

Test system: Subjects With Active Crohn's Disease With Evidence of Mucosal Ulceration
Experiment: Study 3 - Crohn's Disease Activity Index (CDAI) scores
Assay type: in vivo, human
From the text: Double-Blind, Randomized, Placebo-Controlled, Multi-Centre Study to Investigate the Efficacy and Safety of Compound 1 in Subjects With Active Crohn's Disease With Evidence of Mucosal Ulceration. This is a double-blind, randomized, placebo-controlled, multi-centre Phase 2 study to investigate the efficacy and safety of Compound 1 administered once daily for the treatment of active CD with evidence of mucosal ulceration. The pharmacokinetics (including a PK substudy) and pharmacodynamics of Compound 1 and metabolite in CD will also be characterised. A total of 180 eligible subjects will be randomized to receive Compound 1 or placebo in addition to their stable background treatment (eg, corticosteroids, aminosalicylates, or CD-related antibiotics). The study will consist of 2 parts, with total treatment duration of 20 weeks. Randomization in Part 1 will be stratified according the subject's previous anti-TNF exposure/response, CRP level at Screening, and oral corticosteroid use at visit Day −1. After the first 10 weeks of treatment in Part 1, patients will be re-randomized for Part 2 as shown in the diagram below and will be stratified according to the subject's clinical response, previous anti-TNF exposure/response, and oral corticosteroid use at visit Day -1. [table] The Crohn's disease activity index (CDAI) is a numerical calculation derived from the sum of products from a list of 8 items (see Table CXXVI below), and multiplied by weighting factors for each item to define the severity of “disease activity” in patients with Crohn's disease (CD)[1]. Essentially, the CDAI represents a numerical estimation of a physician's interpretation of patient symptoms. Index values of 150 and below are associated with quiescent or non-active disease (i.e. “remission”). Values over 150 are indicative of active disease, and over 450, extremely severe disease.% In the present study, clinical remission is defined as a CDAI score of <150 points, and a clinical response is defined as a decrease in CDAI score of at least 100 points.

[1] = 200 mg, LOCF, baseline corticosteroid use: with steroids
[2] = 200 mg, LOCF, baseline corticosteroid use: without steroids
[3] = 200 mg, week 10, Anti-TNF Naïve
[4] = 200 mg, week 10, Anti-TNF experienced non-responders
[5] = 200 mg, week 10, LOCF, screening CRP ≤ 10 ml/L
[6] = 200 mg, week 10, LOCF, screening CRP ≥ 10 mg/L
[7] = initial 200 mg non-responders, continued 200 mg, week 10
[8] = initial 200 mg non-responders, continued 200 mg, week 20
[9] = initial 200 mg non-responders, to placebo, week 10
[10] = initial 200 mg non-responders, to placebo, week 20
[11] = initial 200 mg responders, continued 200 mg, week 10
[12] = initial 200 mg responders, continued 200 mg, week 20
[13] = initial 200 mg responders, to 100 mg, week 10
[14] = initial 200 mg responders, to 100 mg, week 20
[15] = initial 200 mg responders, to placebo, week 10
[16] = initial 200 mg responders, to placebo, week 20
[17] = initial placebo non-responders switching to 100 mg at week 10, week 20

O=C(Nc1nc2cccc(-c3ccc(CN4CCS(=O)(=O)CC4)cc3)n2n1)C1CC1 [Compound 1, cyclopropanecarboxylic acid {5-[4-(1,1-dioxo-thiomorpholin-4-ylmethyl)-phenyl]-[1,2,4]triazolo[1,5-a]pyridin-2-yl}-amide]
70 point clinical response (CDAI improvement ≥ 70 points) [1]: 70%
100 point clinical response (CDAI improvement ≥ 100 points) [1]: 60%
Clinical Remission (CDAI < 150) [1]: 52%
70 point clinical response (CDAI improvement ≥ 70 points) [2]: 72%
100 point clinical response (CDAI improvement ≥ 100 points) [2]: 71%
Clinical Remission (CDAI < 150) [2]: 48%
70 point clinical response (CDAI improvement ≥ 70 points) [3]: 81%
100 point clinical response (CDAI improvement ≥ 100 points), LOCF [3]: 74%
Clinical Remission (CDAI < 150), LOCF [3]: 65%
70 point clinical response (CDAI improvement ≥ 70 points) [4]: 63%
100 point clinical response (CDAI improvement ≥ 100 points), LOCF [4]: 59%
Clinical Remission (CDAI < 150), LOCF [4]: 38%
70 point clinical response (CDAI improvement ≥ 70 points) [5]: 73%
100 point clinical response (CDAI improvement ≥ 100 points) [5]: 66%
Clinical Remission (CDAI < 150) [5]: 46%
70 point clinical response (CDAI improvement ≥ 70 points) [6]: 69%
100 point clinical response (CDAI improvement ≥ 100 points) [6]: 65%
Clinical Remission (CDAI < 150) [6]: 56%
100 point clinical response (CDAI improvement ≥ 100 points), LOCF (200 mg, week 10, overall): 66%
100 point clinical response (CDAI improvement ≥ 100 points), NRI (200 mg, week 10, overall): 60%
Clinical Remission (CDAI < 150), LOCF (200 mg, week 10, overall): 50%
Clinical Remission (CDAI <150), NRI (200 mg, week 10, overall): 48%
Clinical Remission (CDAI < 150), LOCF [7]: 16%
Clinical Remission (CDAI <150), NRI [7]: 16%
Clinical Remission (CDAI <150), OC [7]: 16%
Clinical Response (CDAI ≥70), LOCF [7]: 44%
Clinical Response (CDAI ≥70), NRI [7]: 44%
Clinical Response (CDAI ≥70), OC [7]: 44%
Clinical Response (CDAI ≥100), LOCF [7]: 32%
Clinical Response (CDAI ≥100), NRI [7]: 32%
Clinical Response (CDAI ≥ 100), OC [7]: 32%
Clinical Remission (CDAI < 150), LOCF [8]: 28%
Clinical Remission (CDAI <150), NRI [8]: 24%
Clinical Remission (CDAI <150), OC [8]: 30%
Clinical Response (CDAI ≥70), LOCF [8]: 44%
Clinical Response (CDAI ≥70), NRI [8]: 40%
Clinical Response (CDAI ≥70), OC [8]: 50%
Clinical Response (CDAI ≥100), LOCF [8]: 36%
Clinical Response (CDAI ≥100), NRI [8]: 32%
Clinical Response (CDAI ≥ 100), OC [8]: 40%
Clinical Remission (CDAI < 150), LOCF [9]: 0%
Clinical Remission (CDAI <150), NRI [9]: 0%
Clinical Remission (CDAI <150), OC [9]: 0%
Clinical Response (CDAI ≥70), LOCF [9]: 22%
Clinical Response (CDAI ≥70), NRI [9]: 11%
Clinical Response (CDAI ≥70), OC [9]: 13%
Clinical Response (CDAI ≥100), LOCF [9]: 22%
Clinical Response (CDAI ≥100), NRI [9]: 11%
Clinical Response (CDAI ≥ 100), OC [9]: 13%
Clinical Remission (CDAI < 150), LOCF [10]: 33%
Clinical Remission (CDAI <150), NRI [10]: 33%
Clinical Remission (CDAI <150), OC [10]: 38%
Clinical Response (CDAI ≥70), LOCF [10]: 44%
Clinical Response (CDAI ≥70), NRI [10]: 44%
Clinical Response (CDAI ≥70), OC [10]: 50%
Clinical Response (CDAI ≥100), LOCF [10]: 33%
Clinical Response (CDAI ≥100), NRI [10]: 33%
Clinical Response (CDAI ≥ 100), OC [10]: 38%
Clinical Remission (CDAI < 150), LOCF [11]: 67%
Clinical Remission (CDAI <150), NRI [11]: 63%
Clinical Remission (CDAI <150), OC [11]: 70%
Clinical Response (CDAI decrease ≥100 points), OC [11]: 93%
Clinical Response (CDAI ≥70), LOCF [11]: 100%
Clinical Response (CDAI ≥70), NRI [11]: 90%
Clinical Response (CDAI ≥70), OC [11]: 100%
Clinical Response (CDAI ≥100), LOCF [11]: 93%
Clinical Response (CDAI ≥100), NRI [11]: 83%
Clinical Remission (CDAI < 150), LOCF [12]: 57%
Clinical Remission (CDAI <150), NRI [12]: 50%
Clinical Remission (CDAI <150), OC [12]: 58%
Clinical Response (CDAI decrease ≥100 points), OC [12]: 77%
Clinical Response (CDAI ≥70), LOCF [12]: 80%
Clinical Response (CDAI ≥70), NRI [12]: 70%
Clinical Response (CDAI ≥70), OC [12]: 81%
Clinical Response (CDAI ≥100), LOCF [12]: 77%
Clinical Response (CDAI ≥100), NRI [12]: 67%
Clinical Remission (CDAI < 150), LOCF [13]: 87%
Clinical Remission (CDAI <150), NRI [13]: 87%
Clinical Remission (CDAI <150), OC [13]: 87%
Clinical Response (CDAI decrease ≥100 points), OC [13]: 97%
Clinical Response (CDAI ≥70), LOCF [13]: 100%
Clinical Response (CDAI ≥70), NRI [13]: 100%
Clinical Response (CDAI ≥70), OC [13]: 100%
Clinical Response (CDAI ≥100), LOCF [13]: 97%
Clinical Response (CDAI ≥100), NRI [13]: 97%
Clinical Remission (CDAI < 150), LOCF [14]: 63%
Clinical Remission (CDAI <150), NRI [14]: 60%
Clinical Remission (CDAI <150), OC [14]: 75%
Clinical Response (CDAI decrease ≥100 points), OC [14]: 92%
Clinical Response (CDAI ≥70), LOCF [14]: 83%
Clinical Response (CDAI ≥70), NRI [14]: 77%
Clinical Response (CDAI ≥70), OC [14]: 96%
Clinical Response (CDAI ≥100), LOCF [14]: 80%
Clinical Response (CDAI ≥100), NRI [14]: 73%
Clinical Remission (CDAI < 150), LOCF [15]: 79%
Clinical Remission (CDAI <150), NRI [15]: 71%
Clinical Remission (CDAI <150), OC [15]: 77%
Clinical Response (CDAI decrease ≥100 points), OC [15]: 92%
Clinical Response (CDAI ≥70), LOCF [15]: 100%
Clinical Response (CDAI ≥70), NRI [15]: 93%
Clinical Response (CDAI ≥70), OC [15]: 100%
Clinical Response (CDAI ≥100), LOCF [15]: 93%
Clinical Response (CDAI ≥100), NRI [15]: 86%
Clinical Remission (CDAI < 150), LOCF [16]: 79%
Clinical Remission (CDAI <150), NRI [16]: 71%
Clinical Remission (CDAI <150), OC [16]: 77%
Clinical Response (CDAI decrease ≥100 points), OC [16]: 85%
Clinical Response (CDAI ≥70), LOCF [16]: 93%
Clinical Response (CDAI ≥70), NRI [16]: 86%
Clinical Response (CDAI ≥70), OC [16]: 92%
Clinical Response (CDAI ≥100), LOCF [16]: 86%
Clinical Response (CDAI ≥100), NRI [16]: 79%
Clinical Remission (CDAI < 150), LOCF [17]: 32%
Clinical Remission (CDAI <150), NRI [17]: 32%
Clinical Remission (CDAI <150), OC [17]: 33%
Clinical Response (CDAI ≥70), LOCF [17]: 68%
Clinical Response (CDAI ≥70), NRI [17]: 68%
Clinical Response (CDAI ≥70), OC [17]: 71%
Clinical Response (CDAI ≥100), LOCF [17]: 59%
Clinical Response (CDAI ≥100), NRI [17]: 59%
Clinical Response (CDAI ≥ 100), OC [17]: 62%
